Test results as given in PubChem BioAssay AID1259407 (Chemical Carcinogenesis Research Information System (CCRIS), 2018).
Calls of active or inactive are those of the source. No rule for the calls is given here.

Test system: CCRIS mutagenicity, Ames/micronucleus/aberration tests
Assay: CCRIS mutagenicity studies
Conditions: Test System: AMES SALMONELLA TYPHIMURIUM

Measured: mutagenic call

C=CCc1ccc2c(c1)OCO2
inactive: Strain/Indicator: TA97, Metabolic Activation: HAMSTER LIVER S-9, AROCLOR 1254 (10%), Method: PREINCUBATION inactive; negative | Strain/Indicator: TA97, Metabolic Activation: HAMSTER LIVER S-9, AROCLOR 1254 (30%), Method: PREINCUBATION inactive; negative | Strain/Indicator: TA97, Metabolic Activation: NONE, Method: PREINCUBATION inactive; negative | Strain/Indicator: TA97, Metabolic Activation: NONE, Method: STANDARD PLATE inactive; negative | Strain/Indicator: TA97, Metabolic Activation: RAT LIVER S-9, AROCLOR 1254 (10%), Method: PREINCUBATION inactive; negative | Strain/Indicator: TA97, Metabolic Activation: RAT LIVER S-9, AROCLOR 1254 (30%), Method: PREINCUBATION inactive; negative | Strain/Indicator: TA97, Metabolic Activation: S-9, Method: STANDARD PLATE inactive; negative | Strain/Indicator: TA98, Metabolic Activation: HAMSTER LIVER S-9, AROCLOR 1254 (10%), Method: PREINCUBATION inactive; negative | Strain/Indicator: TA98, Metabolic Activation: HAMSTER LIVER S-9, AROCLOR 1254 (30%), Method: PREINCUBATION inactive; negative | Strain/Indicator: TA98, Metabolic Activation: NONE, Method: PREINCUBATION inactive; negative | Strain/Indicator: TA98, Metabolic Activation: NONE, Method: STANDARD PLATE inactive; negative | Strain/Indicator: TA98, Metabolic Activation: RAT LIVER S-9, AROCLOR 1254 (10%), Method: PREINCUBATION inactive; negative | Strain/Indicator: TA98, Metabolic Activation: RAT LIVER S-9, AROCLOR 1254 (30%), Method: PREINCUBATION inactive; negative | Strain/Indicator: TA98, Metabolic Activation: RAT, LIVER, S-9, AROCLOR 1254, Method: STANDARD PLATE inactive; negative | Strain/Indicator: TA98, Metabolic Activation: S-9, Method: STANDARD PLATE inactive; negative | Strain/Indicator: TA100, Metabolic Activation: HAMSTER LIVER S-9, AROCLOR 1254 (10%), Method: PREINCUBATION inactive; negative | Strain/Indicator: TA100, Metabolic Activation: HAMSTER LIVER S-9, AROCLOR 1254 (30%), Method: PREINCUBATION inactive; negative | Strain/Indicator: TA100, Metabolic Activation: NONE, Method: PREINCUBATION inactive; negative | Strain/Indicator: TA100, Metabolic Activation: NONE, Method: STANDARD PLATE inactive; negative | Strain/Indicator: TA100, Metabolic Activation: RAT LIVER S-9, AROCLOR 1254 (10%), Method: PREINCUBATION inactive; negative | Strain/Indicator: TA100, Metabolic Activation: RAT LIVER S-9, AROCLOR 1254 (30%), Method: PREINCUBATION inactive; negative | Strain/Indicator: TA100, Metabolic Activation: RAT, LIVER, S-9, AROCLOR 1254, Method: STANDARD PLATE inactive; negative | Strain/Indicator: TA100, Metabolic Activation: S-9, Method: STANDARD PLATE inactive; negative | Strain/Indicator: TA102, Metabolic Activation: NONE, Method: STANDARD PLATE inactive; negative | Strain/Indicator: TA102, Metabolic Activation: RAT LIVER S-9, PHENOBARBITAL AND 5,6-BENZOFLAVONE, Method: STANDARD PLATE inactive; negative | Strain/Indicator: TA102, Metabolic Activation: S-9, Method: STANDARD PLATE inactive; negative | Strain/Indicator: TA1535, Metabolic Activation: HAMSTER LIVER S-9, AROCLOR 1254 (10%), Method: PREINCUBATION inactive; negative | Strain/Indicator: TA1535, Metabolic Activation: HAMSTER LIVER S-9, AROCLOR 1254 (30%), Method: PREINCUBATION inactive; negative | Strain/Indicator: TA1535, Metabolic Activation: NONE, Method: PREINCUBATION inactive; negative
